Test results reported in US20050221381A1, “Method for isolating ligands” (priority 2002, published 2005).
Entries after “also recorded” stand apart in the source; their conditions may differ. Read-outs that look alike come from different tables or passages of the source.

Assays:
[1] = molecular target: T1, soluble DRB1*0404 molecules (Homo sapiens, UniProt P01903+P01911, A100R/A169T/F76Y/I96L/K127E/L162R/M171V/N62H/P40V/Q125Y/R42H/S133A/S149N/S66Y/V209L/W38E); assay: Peptide binding assay, SDS-stability assay; set-up: key: −: no binding/T cell response; +/−: weak binding/T cell response; +: intermediate binding/T cell response; ++: strong binding/T cell response
T1 construct: Soluble HLA class I A*0201 and HLA class II DRA1*0101/DRB1*0101/Ii, DRA1*0101/DRB1*0401/Ii and DRA1*0101/DRB1*0404/Ii molecules were expressed in SC-2 cells; made in house; host or cells: SC-2 cells

[2] = molecular target: T2, soluble DRB1*0401 molecules (DR4) (Homo sapiens, UniProt P01903+P01911, A100K/A169T/F76Y/I96L/K127E/L162R/M171V/N62H/P40V/Q125Y/R42H/S133A/S149N/S66Y/V115G/V209L/W38E); format: binding; set-up: key: −: no binding/T cell response; +/−: weak binding/T cell response; +: intermediate binding/T cell response; ++: strong binding/T cell response
T2 construct: Soluble HLA class I A*0201 and HLA class II DRA1*0101/DRB1*0101/Ii, DRA1*0101/DRB1*0401/Ii and DRA1*0101/DRB1*0404/Ii molecules were expressed in SC-2 cells; made in house; host or cells: SC-2 cells

[3] = molecular target: T3, soluble DRB1*0101 molecules (Homo sapiens, UniProt P01903+P01911, A100R/D57E/F55L/F60I/F76Y/I96L/L162R/M171V/P40L/Q125E/R42F/V115G/Y59C); assay: Peptide binding assay, SDS-stability assay; set-up: key: −: no binding/T cell response; +/−: weak binding/T cell response; +: intermediate binding/T cell response; ++: strong binding/T cell response
T3 construct: Soluble HLA class I A*0201 and HLA class II DRA1*0101/DRB1*0101/Ii, DRA1*0101/DRB1*0401/Ii and DRA1*0101/DRB1*0404/Ii molecules were expressed in SC-2 cells; made in house; host or cells: SC-2 cells

DRB1*1101 = DRB1*1101 (Homo sapiens, UniProt P01903+P01911, A100R/A169T/A87E/I96F/K41T/L162R/M171V/P40S/Q125H/Q178H/Q39Y/Q99D/R42S/S66Y/T262R/V115G/W38E); assay: Peptide-competition assay with biotinylated CLIP peptide (ELISA); format: binding; set-up: key: −: no binding/T cell response; +/−: weak binding/T cell response; +: intermediate binding/T cell response; ++: strong binding/T cell response; conditions: for Binding to DRB1*1101: longer peptides no. 1500-1505, peptide-competition assay
Method: (§1) The binding affinities to DRB1*0701 and DRB1*1101 were tested by a peptide-competition assay (Reay et al., 1992). Briefly, binding of the biotinylated CLIP peptide (reference peptide) has been used for monitoring of HLA:peptide complex formation. […] In the case of lower affinity peptides they should be added in excess to the reference peptide to compete for occupancy of HLA binding grove. […] Alternatively, comparing of the amount of reference peptide bound to HLA molecules in the presence or absence of competitor peptide one can determine the binding activity of the peptide of interest.
(§2) In the present peptide-competition assay conditions of peptide binding were similar to described above. Soluble HLA molecules were used in the concentration of 0.5 μM and biotinylated CLIP was added to all samples in the final concentration of 2 μM. Competitor peptides were added in three different concentrations: 0.25, 5 and 100 μM. Binding reaction was performed in PBS buffer (pH 7.4) for 18 hours at 37° C. […] Briefly, MaxiSorb 96-well plates (Nunc, Denmark) were coated with mouse anti-αβ antibody L243 (purified from ATCC HB-55) by overnight incubation with 50 μl of 10 μg/ml dilution in PBS at 4° C. Non-specific binding to the plastic was blocked by incubation with T-PBS containing 3% of BSA for 2 hours at 37° C. and binding reactions were then “captured” for 2 hours at room temperature. […] The optical density at 405 nm was measured on a microplate reader SUNRISE (Tecan).

DRB1*0701 = DRB1*0701 (Homo sapiens, UniProt P01903+P01911, A100R/A102G/A103Q/D57E/D86V/E43K/F76Y/K127E/L162R/M171V/P40G/Q125H/Q99D/R33Q/R42Y/R54Q/S133A/S66F/T210M/V115G/Y107V/Y59L/Y89S); assay: as above; format: binding; set-up: key: −: no binding/T cell response; +/−: weak binding/T cell response; +: intermediate binding/T cell response; ++: strong binding/T cell response
Method: as §1, §2

[4] = molecular target: T2, soluble DRB1*0401 molecules (DR4); format: binding; set-up: key to DR4 binding: +++: high binding affinity; ++: moderate binding affinity; +: low binding affinity; −: no binding; key to Binding to DRB1 *0401: −: no binding/T cell response; +/−: weak binding/T cell response; +: intermediate binding/T cell response; ++: strong binding/T cell response; conditions: for Binding to soluble DRB1*0401 molecules (in words): SDS-stability assay
[5] = system: HLA-DRB1*0401-transgenic mice splenocytes; format: in vivo, mouse; set-up: key to DRB1*0401 mice total SC (T cell response) / DRB1*0401 mice CD4+ (T cell response): −: no binding/T cell response; +/−: weak binding/T cell response; +: intermediate binding/T cell response; ++: strong binding/T cell response; conditions: for Immunogenicity in DRB1*0401-transgenic mice (in words): INF-gamma ELISpot (FIG. 12)
[6] = molecular target: T4, soluble DRB1*0401 molecules (Homo sapiens, UniProt P01903+P01911, A100K/A169T/F76Y/I96L/K127E/L162R/M171V/N62H/P40V/Q125Y/R42H/S133A/S149N/S66Y/V115G/V209L/W38E); assay: Epitope capture from peptide mixtures, gel filtration and MALDI-TOF MS of bound peptides; format: binding
T4 construct: Soluble HLA class I A*0201 and HLA class II DRA1*0101/DRB1*0101/Ii, DRA1*0101/DRB1*0401/Ii and DRA1*0101/DRB1*0404/Ii molecules were expressed in SC-2 cells; made in house; host or cells: SC-2 cells
Excerpt: After peptide binding reaction with soluble HLA molecules, HLA-peptide complexes were separated from free peptides by gel-filtration chromatography on Superdex-200 column (AKTAdesign, Amersham Pharmacia Biotech). HLA-containing fractions were collected, and bound peptides were reconstituted from the complexes by adding TFA to the final concentration of 1%. Peptides were desolted by Ziptip purification and analyzed by MALDI-TOF mass-spectrometry.
Second, the ability to capture peptides binding to HLA class II molecules from the mixture of two high affinity ligands was tested. The binding reaction contained 1 μM of soluble DRB1*0401 molecules and 5 μM of each YAR and 1242 peptide. After the HLA-peptide complexes were formed, they were separated from the excess of free peptides by gel filtration chromatography. Fractions containing MHC molecules were collected. Bound peptides were eluted from the complexes and analyzed by mass-spectrometry.
Third, it was investigated if the binding capacity of the high affinity ligand would be influenced by the excess of low affinity peptide. […] Peptide binding was assessed by SDS-stability assay and verified by MS analysis (FIG. 3).
The final concentration of each peptide in binding reaction was 5 μM, except 1236 added in 55 μM, meaning that the concentration of each individual binding peptide was 20-fold lower than final concentration of all peptides. DRB1*0401 molecules were added to 1 μM. The formation of MHC-peptide complexes was evaluated as described above, using single peptides as controls (FIG. 4). […] The result of this analysis yielded the two peptides with highest binding affinities: 1242 and YAR (see Table 1). The peptides with moderate and/or low affinities were not found in the complexes, probably due to the high concentration of strong competitors used in this assay.

[7] = longer peptides no. 1500-1505, peptide-competition assay
[8] = CD4+ fraction of splenocytes, IFN-γ ELISpot
[9] = IFN-gamma ELISpot, enriched CD4+ fraction of splenocytes of HLA-DR4 transgenic mice vaccinated with the longer peptide, ex vivo re-stimulation
[10] = IFN-gamma ELISpot, total splenocytes of HLA-DR4 transgenic mice vaccinated with the longer peptide, ex vivo re-stimulation
[11] = total splenocytes, ex vivo restimulation, IFN-γ ELISpot

Row | Sequence | Binding to DRB1*0404 ([1]; longer peptides no. 1500-1505) | Binding to DRB1*0404 ([1]; soluble DRB1*0404 molecules) | Binding to DRB1*0401 ([2]; longer peptides no. 1500-1505) | Binding to DRB1*0101 ([3]; longer peptides no. 1500-1505) | Binding to DRB1*0101 ([3]; soluble DRB1*0101 molecules) | Binding to DRB1 1101 (DRB1*1101) | Binding to DRB1*1101 (DRB1*1101) | Binding to DRB1 *0701 (DRB1*0701; DRB1*0701) | Binding to DRB1 *0701 (DRB1*0701; [7]) | Binding to DRB1 *0401 ([4]; soluble DRB1*0401 molecules) | DRB1*0401 mice CD4+ (T cell response) [5, 8] | DRB1*0401 mice CD4+ (T cell response) [5, 9] | DRB1*0401 mice total SC (T cell response) [5, 10] | DRB1*0401 mice total SC (T cell response) [5, 11] | also measured
1 | YRHTWDRHDEGAAQGDDDVW [Peptide 1503] | − | − | +/− | − | − | − | − | − | − | +/− | − | − | − | − | Binding to soluble DRB1*0401 molecules (in words) [4]: weak affinity; Immunogenicity in DRB1*0401-transgenic mice (in words) ([5]; total splenocytes): did not induce immune response; also recorded: not immunogenic
2 | TSGVMTRGRLKAESTVAPEEDTDE [Peptide 1504] |  | ++ | + | + | + | + | + | − | − | + | ++ | ++ | + | + | 
3 | YARFQSQTTLKQKT [reference compound] |  |  |  |  |  |  |  |  |  |  |  |  |  |  | Peptides captured from pool of 10 peptides, MS analysis ([6]; each peptide 5 μM, 1236 55 μM, DRB1*0401 1 μM): captured by DR4 molecules; Peptides found in complexes with MHC molecules by MS ([6]; mixture of two ligands, 5 μM each, 1 μM DRB1*0401): revealed in the complexes with MHC molecules; DR4 binding [4]: +++
4 | LLQRGPQYSEHPTFTSQYRIQG [Peptide 1502] | − | − |  | − | − | ++ | ++ | − | − |  |  |  |  |  | Binding to DRB1*0401 [2]: +; Binding to DRB1 *0401 [4]: +; CD4+ / CD8+ response of separated splenocytes ([5]; mouse, in vivo): simultaneous CD4+ and CD8+ response; DRB1*0401 mice CD4+ (T cell response) ([5]; mouse, in vivo): ++; DRB1*0401 mice total SC (T cell response) ([5]; mouse, in vivo, sc): + and ++
5 | PSLILVSQYTPDSTPCHRGDNQLQVQHTR [Peptide 1500] | ++ | ++ | ++ | + | + | − | − | − | − | ++ | + | + | + | + | 
6 | QWKEPDVYYTSAFVFPTKDVALR [Peptide 1501] | − | − | + | ++ | ++ | + | +/− | − | − | + | + | + | + | + | 
7 | QGQNLKYQEFFWDANDIYRIF [Peptide 1505] | − | − | +/− | − | − | − | − | − | − | + | ++ | ++ | ++ | ++ | Binding to soluble DRB1*0401 molecules (in words) [4]: not so good in binding assay; Immunogenicity in DRB1*0401-transgenic mice (in words) ([5]; total splenocytes): highest frequency of T cells
